Test results from ChEMBL document CHEMBL1177720, “Selective hexapeptide agonists and antagonists for human complement C3a receptor” (J Med Chem, 2010).
Activity calls are given as the source filed them. The rule behind the calls is not given here.

Legend:
[1] = biological target: T1, C3a anaphylatoxin chemotactic receptor (Homo sapiens, UniProt Q16581); assay: Displacement of [125I-C3a] from C3a receptor in human PBMC by scintillation counting; conditions: read-out: IC50
T1 sequence (Q16581 whole entry): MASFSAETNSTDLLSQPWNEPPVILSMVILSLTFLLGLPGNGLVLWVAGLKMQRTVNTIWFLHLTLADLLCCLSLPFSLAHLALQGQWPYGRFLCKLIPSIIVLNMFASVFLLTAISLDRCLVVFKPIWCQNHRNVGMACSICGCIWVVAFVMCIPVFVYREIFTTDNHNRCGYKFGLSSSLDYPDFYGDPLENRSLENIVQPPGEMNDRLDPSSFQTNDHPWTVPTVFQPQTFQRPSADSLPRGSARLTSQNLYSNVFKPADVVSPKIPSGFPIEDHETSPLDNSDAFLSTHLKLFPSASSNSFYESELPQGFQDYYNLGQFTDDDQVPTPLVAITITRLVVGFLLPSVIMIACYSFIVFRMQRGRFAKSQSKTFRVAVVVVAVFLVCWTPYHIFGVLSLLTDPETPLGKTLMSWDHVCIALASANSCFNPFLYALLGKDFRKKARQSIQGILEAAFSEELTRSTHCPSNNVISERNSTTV

[2] = biological target: T1, C3a anaphylatoxin chemotactic receptor; assay: Antagonist activity at human C3a receptor in human U937 cells assessed as inhibition of intracellular calcium mobilization; assay type: functional, cell-based, U-937
[3] = biological target: T2, C3a anaphylatoxin chemotactic receptor (Homo sapiens) (UniProt Q16581); assay: Agonist activity at human C3a receptor in human U937 cells assessed as induction of intracellular calcium release at 1 mM; assay type: functional, cell-based; conditions: U-937
T2 sequence (whole entry): T1 sequence (Q16581 whole entry)

Homo sapiens = organism: Homo sapiens; assay: Selectivity for human C3a receptor over human C5a receptor
[4] = biological target: T2, C3a anaphylatoxin chemotactic receptor (Homo sapiens); assay: Agonist activity at human C3a receptor in human U937 cells assessed as induction of intracellular calcium release at 100 uM; assay type: functional, cell-based; conditions: U-937
[5] = biological target: T3, C5a anaphylatoxin chemotactic receptor 1 (Homo sapiens) (UniProt P21730); assay: Displacement of […] from C5a receptor in human PBMC at 1 mM by scintillation counting
T3 sequence (whole entry): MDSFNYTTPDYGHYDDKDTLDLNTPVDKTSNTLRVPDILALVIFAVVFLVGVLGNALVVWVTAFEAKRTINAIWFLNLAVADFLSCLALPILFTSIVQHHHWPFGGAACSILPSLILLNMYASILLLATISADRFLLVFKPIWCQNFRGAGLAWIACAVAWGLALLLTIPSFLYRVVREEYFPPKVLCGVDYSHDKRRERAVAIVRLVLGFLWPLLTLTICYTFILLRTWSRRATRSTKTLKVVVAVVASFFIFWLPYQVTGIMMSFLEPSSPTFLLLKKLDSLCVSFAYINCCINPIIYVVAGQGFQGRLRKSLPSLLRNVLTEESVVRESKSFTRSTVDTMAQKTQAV

[6] = biological target: T2, C3a anaphylatoxin chemotactic receptor (Homo sapiens); assay: Agonist activity at human C3a receptor in human U937 cells assessed as induction of intracellular calcium release at 10 uM; assay type: functional, cell-based; conditions: U-937

Selectivity ratio (Homo sapiens) | Structure (SMILES) | IC50 [1] [nM] | IC50 [2] [nM] | Activity [3] | Activity [4] | Activity [5] | Activity [6]
> 100 | CC(C)C[C@H](NC(=O)[C@@H](N)Cc1ccccc1)C(=O)N[C@H](C(=O)N[C@@H](CC1CCCCC1)C(=O)N[C@@H](C)C(=O)N[C@@H](CCCNC(=N)N)C(=O)O)[C@@H](C)O | 238 | 240 | inactive | inactive | inactive | –
– | N=C(N)NCCC[C@H](NC(=O)COCC(c1ccccc1)c1ccccc1)C(=O)O | 140 | 1300 | inactive | – | inactive | inactive
